Common to all, as to test: In vitro MIC, broth dilution
Common to all, as to format: cell-based

The subject of test [1] is E. coli GC 4559. Conditions: Escherichia coli, GC4559; E. coli GC 4559; read-out: MIC.
Test [2] deals with E. coli GC 4560. Particulars: Escherichia coli, GC4560; E. coli GC 4560; read-out: MIC.
Test [3] concerns E. coli GC 3226. Particulars: Escherichia coli, GC3226; E. coli GC 3226; read-out: MIC.
In test [4] the test system is S. marcescens GC 4077. Particulars: Serratia marcescens, GC4077; S. marcescens GC 4077; read-out: MIC.
Test [5] concerns C. albicans GC 3066. Conditions: Candida albicans, GC3066; C. albicans GC 3066; read-out: MIC.
In test [6] the test system is M. morganii GC 4531. Conditions: Morganella morganii, GC4531; M. morganii GC 4531; read-out: MIC.
Test [7] deals with K. pneumoniae GC 4534. Particulars: Klebsiella pneumoniae, GC4534; K. pneumoniae GC 4534; read-out: MIC.
The subject of test [8] is E. cloacae GC 3783. Conditions: Enterobacter cloacae, GC3783; E. cloacae GC 3783; read-out: MIC.
The test system of test [9] is P. aeruginosa GC 4532. Particulars: Pseudomonas aeruginosa, GC4532; P. aeruginosa GC 4532; read-out: MIC.
Test [10] relates to CNS GC 4537. In outline:
(§1)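 Lowest concentration blocking bacterial growth, read after 18 h at 35 °C in ambient air. Mueller-Hinton II broth dilution, 5×10^5 CFU/ml inoculum, drug range 64-0.06 μg/ml.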

Test [11] deals with CNS GC 4538. The procedure, abridged:
as §1

Test [12] concerns CNS GC 4547. The procedure, abridged:
as §1

Test [13] has as its system E. faecalis GC 2242. Particulars: Enterococcus faecalis, GC2242; E. faecalis GC 2242; read-out: MIC. The procedure, abridged: as §1
Test [14] concerns E. faecalis GC 4555. Conditions: Enterococcus faecalis, GC4555; E. faecalis GC 4555; read-out: MIC. The procedure, abridged: as §1
The subject of test [15] is E. faecalis GC 842. Particulars: Enterococcus faecalis, GC842; E. faecalis GC 842; read-out: MIC. In outline: as §1
In test [16] the test system is S. aureus GC 1131. Conditions: Staphylococcus aureus, GC1131; S. aureus GC 1131; read-out: MIC. In outline:
as §1

Test [17] relates to S. aureus GC 2216. Particulars: Staphylococcus aureus, GC2216; S. aureus GC 2216; read-out: MIC. The procedure, abridged: as §1
Test [18] deals with S. aureus GC 4536. Conditions: Staphylococcus aureus, GC4536; S. aureus GC 4536; read-out: MIC. In outline:
as §1

The subject of test [19] is E. coli GC 2203. Particulars: Escherichia coli, GC2203; E. coli GC 2203; read-out: MIC.
For test [20], the system named is P. aeruginosa GC 2214. Particulars: Pseudomonas aeruginosa, GC2214; P. aeruginosa GC 2214; read-out: MIC.

Molecules are shown by their SMILES. ≈ marks a conversion by molar mass, not a printed value. Where two headings read alike, the source gives them in different places.

One may read the MIC as the least concentration at which growth counts as inhibited.

For `CCOC(=O)C(NCCCNC(=O)[C@@H](NC(=O)OCc1ccccc1)C(C)O)C(O)[C@H]1O[C@H](n2ccc(=O)[nH]c2=O)[C@H](OC(C)=O)[C@@H]1OC(C)=O` (stereo partly drawn) [Example 31a, Ethyl (5S)-12-[(R)-[(2R,3R,4R,5S)-3,4-bis(acetyloxy)-5-(2,4-dioxo-3,4-dihydro-1(2H)-pyrimidinyl)tetrahydro-2-furanyl](hydroxy)methyl]-5-[(1S)-1-hydroxyethyl]-3,6-dioxo-1-phenyl-2-oxa-4,7,11-triazatridecan-13-oate], the MIC is over 128 mg/L in test [1]; 128 mg/L (≈ 177 µM) in test [2]; 128 mg/L (≈ 177 µM) in test [3]; 128 mg/L (≈ 177 µM) in test [4]; 128 mg/L (≈ 177 µM) in test [5]; 128 mg/L (≈ 177 µM) in [6]. Also, the MIC is 128 mg/L (≈ 177 µM) in test [7]; 128 mg/L (≈ 177 µM) in [8]; 128 mg/L (≈ 177 µM) in test [9]; over 128 mg/L in test [10] (CNS GC 4537, read-out: MIC); over 128 mg/L in test [11] (CNS GC 4538, read-out: MIC); over 128 mg/L in test [12] (CNS GC 4547, read-out: MIC). In addition, the minimal inhibitory concentration (MIC) in test [13] was 128 mg/L (≈ 177 µM); in [14], 128 mg/L (≈ 177 µM); in [15], 128 mg/L (≈ 177 µM); in [16], over 128 mg/L; in test [17], over 128 mg/L; in test [18], over 128 mg/L. The minimal inhibitory concentration (MIC) in test [19] and in [20] was 128 mg/L (≈ 177 µM) throughout.
As to `CCOC(=O)C(NCCCNC(=O)[C@@H](N)[C@H](C)O)[C@@H](O)[C@H]1O[C@H](n2ccc(=O)[nH]c2=O)[C@H](OC(C)=O)[C@@H]1OC(C)=O` (stereo partly drawn) [Example 32, Ethyl (3R)-2-[(3-{[(2S,3S)-2-amino-3-hydroxybutanoyl]amino}propyl)amino]-3-[(2R,3R,4R,5S)-3,4-bis(acetyloxy)-5-(2,4-dioxo-3,4-dihydro-1(2H)-pyrimidinyl)tetrahydro-2-furanyl]-3-hydroxypropanoate], the minimum inhibitory concentration (MIC) in [1], in test [2], in [3], in [4], in test [5] and in test [6] was over 128 mg/L in each case. In addition, the minimal inhibitory concentration (MIC) is over 128 mg/L in test [7]; over 128 mg/L in [8]; over 128 mg/L in test [9]; over 128 mg/L in test [10] (CNS GC 4537, read-out: MIC); over 128 mg/L in test [11] (CNS GC 4538, read-out: MIC); over 128 mg/L in test [12] (CNS GC 4547, read-out: MIC). The minimum inhibitory concentration (MIC) in test [13], in [14], in test [15], in [16], in test [17] and in test [18] was over 128 mg/L each time. Moreover, the MIC in [19] and in test [20] was over 128 mg/L throughout.
On to `CCOC(=O)C(NCCCNC(=O)[C@@H](N)[C@H](C)O)[C@@H](O)[C@H]1O[C@@H](n2ccc(=O)[nH]c2=O)[C@H](OC(C)=O)[C@@H]1OC(C)=O` (stereo partly drawn) [Example 33, Ethyl (3R)-2-[(3-{[(2S,3S)-2-amino-3-hydroxybutanoyl]amino}propyl)amino]-3-[(2R,3R,4R,5R)-3,4-bis(acetyloxy)-5-(2,4-dioxo-3,4-dihydro-1(2H)-pyrimidinyl)tetrahydro-2-furanyl]-3-hydroxypropanoate], for which the MIC in [1], in test [2], in test [3], in test [4], in test [5] and in [6] was over 128 mg/L each time. Moreover, the MIC in [7] was over 128 mg/L; in test [8], over 128 mg/L; in test [9], over 128 mg/L; in test [10] (CNS GC 4537, read-out: MIC) it was over 128 mg/L; in [11] (CNS GC 4538, read-out: MIC), over 128 mg/L; in test [12] (CNS GC 4547, read-out: MIC) it was over 128 mg/L. For the same compound, the minimum inhibitory concentration (MIC) in test [13], in test [14], in test [15], in test [16], in test [17] and in test [18] was over 128 mg/L each time. Further, the MIC in test [19] and in test [20] was over 128 mg/L throughout.
Regarding `CCOC(=O)C(NCCCNC(=O)[C@@H](NC(=O)[C@H](CCCNC(=N)N[N+](=O)O)NC(=O)N[C@H](C(=O)OCc1ccccc1)C(C)C)C(C)O)C(O)[C@H]1O[C@H](n2ccc(=O)[nH]c2=O)[C@H](OC(C)=O)[C@@H]1OC(C)=O` (stereo partly drawn) [Example 34, 16-Benzyl 2-ethyl (1R,9S,12S,16S)-1-[(2R,3R,4R,5S)-3,4-bis(acetyloxy)-5-(2,4-dioxo-3,4-dihydro-1(2H)-pyrimidinyl)tetrahydro-2-furanyl]-12-(3-{[(2,2-dioxido-2lambda˜1˜-diazanyl)(imino)methyl]amino}propyl)-1-hydroxy-9-[(1S)-1-hydroxyethyl]-17-methyl-8,11,14-trioxo-3,7,10,13,15-pentaazaoctadecane-2,16-dicarboxylate], the MIC in [1] was over 128 mg/L; in test [2] it was over 128 mg/L; in test [3] it was over 128 mg/L; in [4] it was over 128 mg/L; in test [5], 128 mg/L; in test [6], over 128 mg/L. In addition, the MIC is over 128 mg/L in [7]; over 128 mg/L in [8]; 128 mg/L in test [9]; over 128 mg/L in [10]; over 128 mg/L in test [11]; over 128 mg/L in test [12]. Also, the MIC in [13] was 128 mg/L; in test [14], over 128 mg/L; in test [15] it was over 128 mg/L; in [16] it was over 128 mg/L; in test [17], over 128 mg/L; in test [18] it was over 128 mg/L. For the same compound, the values for the MIC in test [19] and in test [20] were over 128 mg/L and 128 mg/L, respectively.
As to `CCOC(=O)C(NCCCNC(=O)[C@@H](NC(=O)[C@H](CCCNC(=N)N[N+](=O)[O-])NC(=O)N[C@H](C(=O)OCc1ccccc1)C(C)C)C(C)O)C(O)[C@H]1O[C@@H](n2ccc(=O)[nH]c2=O)[C@H](OC(C)=O)[C@@H]1OC(C)=O` (stereo partly drawn) [Example 35], the minimum inhibitory concentration (MIC) in test [1] was over 128 mg/L; in test [2], over 128 mg/L; in test [3], over 128 mg/L; in test [4], over 128 mg/L; in test [5] it was 128 mg/L (≈ 125 µM); in test [6], 128 mg/L (≈ 125 µM). Besides, the minimum inhibitory concentration (MIC) in test [7] is over 128 mg/L; in [8], over 128 mg/L; in test [9] it was 128 mg/L (≈ 125 µM); in test [10], over 128 mg/L; in test [11] it was over 128 mg/L; in [12] it was over 128 mg/L. Further, the MIC in [13] is 128 mg/L (≈ 125 µM); in [14], over 128 mg/L; in test [15], over 128 mg/L; in [16], over 128 mg/L; in [17] it was over 128 mg/L; in [18] it was over 128 mg/L. Also, the minimum inhibitory concentration (MIC) in test [19] was over 128 mg/L; in test [20] it was 128 mg/L (≈ 125 µM).
Take `CCOC(=O)C(NCCCNC(=O)[C@@H](NC(=O)OCc1ccccc1)[C@@H](O)C(C)C)[C@@H](O)[C@H]1O[C@@H](n2ccc(=O)[nH]c2=O)[C@H](OC(C)=O)[C@@H]1OC(C)=O` (stereo partly drawn) [Example 36, Ethyl (5S)-12-[(R)-[(2R,3R,4R,5R)-3,4-bis(acetyloxy)-5-(2,4-dioxo-3,4-dihydro-1(2H)-pyrimidinyl)tetrahydro-2-furanyl](hydroxy)methyl]-5-[(1S)-1-hydroxy-2-methylpropyl]-3,6-dioxo-1-phenyl-2-oxa-4,7,11-triazatridecan-13-oate]: the minimum inhibitory concentration (MIC) in test [1] was over 128 mg/L; in test [2], over 128 mg/L; in test [3], over 128 mg/L; in test [4], over 128 mg/L; in [5] it was 128 mg/L (≈ 171 µM); in [6] it was 128 mg/L (≈ 171 µM). The minimum inhibitory concentration (MIC) is over 128 mg/L in test [7]; over 128 mg/L in [8]; 128 mg/L (≈ 171 µM) in test [9]; over 128 mg/L in test [10] (CNS GC 4537, read-out: MIC); over 128 mg/L in test [11] (CNS GC 4538, read-out: MIC); over 128 mg/L in test [12] (CNS GC 4547, read-out: MIC). For the same compound, the MIC was 128 mg/L (≈ 171 µM) in [13]; over 128 mg/L in test [14]; over 128 mg/L in [15]; over 128 mg/L in test [16]; over 128 mg/L in [17]; over 128 mg/L in test [18]. Further, the minimal inhibitory concentration (MIC) in test [19] was over 128 mg/L; in test [20], 128 mg/L (≈ 171 µM).
